Source: PMC10897480, “Molecular details of ruthenium red pore block in TRPV channels” (EMBO Reports, 2024)
Numbering of substitutions follows the chain as printed.

Columns and labels:
TRPV2 [1] = target: T1, TRPV2 (Rattus norvegicus, UniProt Q9WUD2); experiment: cryo-EM structure ([…] Å, with RR); activates whole-cell currents at […]
T1 construct: wild-type rat TRPV2, C-terminal 1D4 tag, in nanodiscs
T1 sequence (Q9WUD2 1-761): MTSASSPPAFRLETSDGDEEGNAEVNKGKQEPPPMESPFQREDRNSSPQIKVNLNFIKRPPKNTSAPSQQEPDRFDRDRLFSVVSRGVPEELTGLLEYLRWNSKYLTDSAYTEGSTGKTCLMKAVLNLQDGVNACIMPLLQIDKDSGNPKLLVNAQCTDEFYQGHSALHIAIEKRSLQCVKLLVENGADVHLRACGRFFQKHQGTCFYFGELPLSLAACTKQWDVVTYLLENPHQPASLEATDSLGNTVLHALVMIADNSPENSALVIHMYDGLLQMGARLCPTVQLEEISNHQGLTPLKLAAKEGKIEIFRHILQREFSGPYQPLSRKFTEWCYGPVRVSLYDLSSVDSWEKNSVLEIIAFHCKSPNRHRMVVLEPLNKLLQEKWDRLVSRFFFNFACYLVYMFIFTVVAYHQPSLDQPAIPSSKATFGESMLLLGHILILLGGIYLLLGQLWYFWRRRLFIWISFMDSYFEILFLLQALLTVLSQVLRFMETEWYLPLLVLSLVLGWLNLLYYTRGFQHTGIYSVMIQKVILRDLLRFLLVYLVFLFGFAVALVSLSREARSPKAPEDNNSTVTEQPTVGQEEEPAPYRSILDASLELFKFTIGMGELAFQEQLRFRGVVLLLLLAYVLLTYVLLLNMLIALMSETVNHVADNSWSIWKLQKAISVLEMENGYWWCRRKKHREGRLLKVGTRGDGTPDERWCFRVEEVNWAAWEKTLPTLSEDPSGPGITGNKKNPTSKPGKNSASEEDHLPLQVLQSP

TRPV2 [2] = target: T2, TRPV2 (Rattus norvegicus, UniProt Q9WUD2, E609Q); experiment: whole-cell patch clamp, inhibition of 2-APB-induced currents; assay type: cell-based
T2 construct: rat TRPV2 expressed in HEK293T cells
T2 sequence (Q9WUD2 1-761 E609Q): T1 sequence (Q9WUD2 1-761) with E609Q

TRPV5 [3] = target: T3, TRPV5 (Oryctolagus cuniculus, UniProt Q9XSM3); experiment: cryo-EM structures (8FFQ with PI([…])P2 added, […] Å; 8FFN without, […] Å); IC50 from whole-cell patch clamp in HEK293 cells; assay type: cell-based
T3 construct: wild-type rabbit TRPV5, C-terminal 1D4 tag, in nanodiscs
T3 sequence (Q9XSM3 1-730): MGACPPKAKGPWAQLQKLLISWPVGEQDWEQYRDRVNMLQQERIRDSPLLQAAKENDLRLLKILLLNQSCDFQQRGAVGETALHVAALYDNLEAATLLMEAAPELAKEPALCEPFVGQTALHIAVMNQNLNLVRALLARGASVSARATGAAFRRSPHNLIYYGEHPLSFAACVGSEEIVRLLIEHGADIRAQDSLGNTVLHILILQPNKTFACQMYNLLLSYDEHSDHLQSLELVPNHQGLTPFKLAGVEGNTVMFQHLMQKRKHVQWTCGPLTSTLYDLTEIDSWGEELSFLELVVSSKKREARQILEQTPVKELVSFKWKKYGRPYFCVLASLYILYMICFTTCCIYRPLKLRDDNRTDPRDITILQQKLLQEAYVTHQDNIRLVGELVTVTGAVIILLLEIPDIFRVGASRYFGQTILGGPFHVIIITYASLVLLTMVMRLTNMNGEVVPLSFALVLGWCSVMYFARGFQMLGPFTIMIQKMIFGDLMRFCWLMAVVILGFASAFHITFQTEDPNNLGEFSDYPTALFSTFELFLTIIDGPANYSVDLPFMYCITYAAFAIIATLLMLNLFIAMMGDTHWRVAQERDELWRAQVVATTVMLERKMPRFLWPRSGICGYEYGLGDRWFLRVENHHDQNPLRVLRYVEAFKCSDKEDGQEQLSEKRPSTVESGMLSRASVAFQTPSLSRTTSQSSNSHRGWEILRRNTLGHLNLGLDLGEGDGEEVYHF

TRPV5 [4] = target: T4, TRPV5 (Oryctolagus cuniculus, UniProt Q9XSM3, T539A); experiment: whole-cell patch clamp, % inhibition at […] RR ([…] at […]); assay type: cell-based
T4 construct: rabbit TRPV5 expressed in HEK293T cells
T4 sequence (Q9XSM3 1-730 T539A): T3 sequence (Q9XSM3 1-730) with T539A

TRPV2 [5] = target: T1, TRPV2; experiment: cryo-EM structure ([…] Å, with 2-APB); IC50 from whole-cell patch clamp in HEK293T cells; assay type: cell-based
TRPV2 [6] = target: T5, TRPV2 (Rattus norvegicus, UniProt Q9WUD2, M607I); experiment: whole-cell patch clamp, inhibition of 2-APB-induced currents; assay type: cell-based
T5 construct: rat TRPV2 expressed in HEK293T cells
T5 sequence (Q9WUD2 1-761 M607I): T1 sequence (Q9WUD2 1-761) with M607I

[7] = target: the molecule itself; experiment: cryo-EM structure; channel tetramer in MSP2N2/soy polar lipid nanodiscs, 20 mM Hepes pH 8.0, 150 mM NaCl, 2 mM TCEP; with 1 mM ruthenium red, with or without activator (1 mM 2-APB for TRPV2; 400 uM diC8-PI(4,5)P2 for TRPV5)

## NCCOB(c1ccccc1)c1ccccc1 [2-APB, 2-aminoethoxydiphenyl borate]
TRPV2 [1]
  cryo-EM structural observation: clear three-lobed density for 2-APB coordinated by His521 and Arg539

## N.N.N.N.N.N.N.N.N.N.N.N.N.N.[Cl-].[Cl-].[Cl-].[Cl-].[Cl-].[Cl-].[O-2].[O-2].[Ru+3].[Ru+3].[Ru+4] [RR, ruthenium red]
TRPV2 [2]
  IC50: 149 ± 111 µM
TRPV5 [3]
  IC50: 0.0137 ± 0.0044 µM
TRPV5 [4]
  % inhibition at 10 μM: 94.5 ± 1.5
TRPV2 [5]
  IC50: 0.159 ± 0.047 µM
TRPV2 [6]
  IC50: 29 ± 5 µM

B1: wild-type rabbit TRPV5 (natural protein)
chain: T3 sequence (Q9XSM3 1-730)
notes: Transient receptor potential vanilloid 5 (TRPV5), rabbit, wild type; Homotetramer ('TRPV tetramer', C4 symmetry); No step that removes the 1D4 tag is described; also called rbTRPV5; TRPV5RR; source: S. cerevisiae BJ5457, purified (1D4 antibody beads, eluted with 1D4 peptide; reconstituted into MSP2N2 nanodiscs; SEC)
[7]
  binding result: binds
